Values quoted from earlier work as cited in patent US9603852B2, “Treatment of obesity and pulmonary arterial hypertension” (ALBERT EINSTEIN COLLEGE OF MEDICINE, INC., priority 2013, dated 2017).
Read-outs that look alike come from different tables or passages of the source.

Target: T1, rat PGT (Rattus norvegicus, UniProt Q00910)
T1 construct: expressed in transfected cells
Conditions: cited from earlier work; for Inh (% of Ctl) 2.5 μM: 2.5 μM compound; for Inh (% of Ctl) 0.5 μM: 0.5 μM compound; for Inh (% of Ctl) 0.1 μM: 0.1 μM compound; for Inh (% of Ctl) 0.01 μM: 0.01 μM compound; for Inh (% of Ctl) 0.01 μM / Inh (% of Ctl) 0.05 μM: second part of Table 1; for Inh (% of Ctl) 0.05 μM: 0.05 μM compound

[1] = second part of Table 1 (Cpd 130-151)

Row | Structure (SMILES) | Inh (% of Ctl) 0.01 μM | Inh (% of Ctl) 0.05 μM | Inh (% of Ctl) 0.1 μM [1] | also measured
1 | CCCCCCCC(=O)c1ccc(Nc2nc(NCCOCCOCCNC(=O)c3ccccc3)nc(Nc3ccc(O)cc3)n2)cc1 [Compound 76] | – | – | – | Inh (% of Ctl) 2.5 μM: 39.9 % of Ctl
2 | O=C(NCCOCCOCCNc1nc(Nc2ccc(O)cc2)nc(Oc2ccc(C(=O)NCc3ccccc3)cc2)n1)c1ccccc1 [Compound 83] | – | – | – | Inh (% of Ctl) 0.5 μM: 4.1 % of Ctl; Inh (% of Ctl) 2.5 μM: 10.4 % of Ctl; Inh (% of Ctl) 5 μM (5 μM compound): 42.0 % of Ctl; IC50 ([3H]PGE2 uptake, MDCK cells with rat PGT): 0.609 µM
3 | O=C(NCCOCCOCCNc1nc(Nc2ccc(O)cc2)nc(Nc2ccc(C(=O)NCc3ccccc3)cc2)n1)c1ccccc1 [Compound 116] | – | – | – | Inh (% of Ctl) 0.1 μM (first part of Table 1): 36.4 % of Ctl; Inh (% of Ctl) 0.5 μM (0.5 µM): 59.4 % of Ctl
4 | O=C(NCCOCCOCCNc1nc(Nc2ccc(O)cc2)nc(Nc2ccc(C(=O)NCc3cc(F)cc(F)c3)cc2)n1)c1ccccc1 [Compound 130] | 41.6 % of Ctl | 73.2 % of Ctl | 81.7 % of Ctl | –
5 | O=C(NCCOCCOCCNc1nc(Nc2ccc(O)cc2)nc(Nc2ccc(C(=O)NCc3ccc(F)cc3F)cc2)n1)c1ccccc1 [Compound 131] | 22.3 % of Ctl | 47.0 % of Ctl | 74.3 % of Ctl | –
6 | N[C@@H](C(=O)NCCOCCNc1nc(Nc2ccc(O)cc2)nc(Nc2ccc(C(=O)NCc3ccccc3)cc2)n1)c1ccccc1 [Compound 132] | 15.0 % of Ctl | 22.1 % of Ctl | 32.4 % of Ctl | –
7 | N[C@H](Cc1ccccc1)C(=O)NCCOCCNc1nc(Nc2ccc(O)cc2)nc(Nc2ccc(C(=O)NCc3ccccc3)cc2)n1 [Compound 133] | 4.3 % of Ctl | 12.6 % of Ctl | 19.4 % of Ctl | –
8 | O=C(NCc1ccccc1)c1ccc(Nc2nc(NCCOCCNC(=O)c3ccccc3C(F)(F)F)nc(Nc3ccc(O)cc3)n2)cc1 [Compound 134] | 14.0 % of Ctl | 27.7 % of Ctl | 46.7 % of Ctl | –
9 | O=C(NCCOCCNc1nc(Nc2ccc(O)cc2)nc(Nc2ccc(C(=O)NCc3ccccc3)cc2)n1)c1ccncc1 [Compound 135] | 13.2 % of Ctl | 28.4 % of Ctl | – | –
10 | O=C(NCCOCCNc1nc(Nc2ccc(O)cc2)nc(Nc2ccc(C(=O)NCc3ccccc3)cc2)n1)c1ccc(F)cc1 [Compound 136] | 33.3 % of Ctl | 64.1 % of Ctl | 77.9 % of Ctl | –
11 | COc1ccc(C(=O)NCCOCCNc2nc(Nc3ccc(O)cc3)nc(Nc3ccc(C(=O)NCc4ccccc4)cc3)n2)cc1 [Compound 137] | 42.0 % of Ctl | 64.9 % of Ctl | 75.6 % of Ctl | –
12 | O=C(NCCOCCNc1nc(Nc2ccc(O)cc2)nc(Nc2ccc(C(=O)NCc3ccccc3)cc2)n1)Nc1ccccc1 [Compound 139] | 16.3 % of Ctl | 30.7 % of Ctl | 39.0 % of Ctl | –
13 | CC(=O)NCCOCCNc1nc(Nc2ccc(O)cc2)nc(Nc2ccc(C(=O)NCc3ccccc3)cc2)n1 [Compound 140] | 11.5 % of Ctl | 4.5 % of Ctl | 10.9 % of Ctl | –
14 | O=C(NCc1ccccc1)c1ccc(Nc2nc(NCCOCCNCc3ccccc3)nc(Nc3ccc(O)cc3)n2)cc1 [Compound 141] | 12.7 % of Ctl | 22.0 % of Ctl | 43.5 % of Ctl | –
15 | O=C(NCCOCCOCCNc1nc(Nc2ccc(C(=O)NCc3ccc(F)cc3)cc2)nc(Nc2ccc3[nH]cnc3c2)n1)c1ccccc1 [Compound 142] | 8.4 % of Ctl | 20.1 % of Ctl | 39.2 % of Ctl | –
16 | O=C(NCCOCCOCCNc1nc(Nc2ccc(C(=O)NCc3ccc(F)cc3)cc2)nc(Nc2ccc(O)c(F)c2)n1)c1ccccc1 [Compound 143] | 33.7 % of Ctl | 57.8 % of Ctl | 69.5 % of Ctl | –
17 | COC(=O)c1cc(Nc2nc(NCCOCCOCCNC(=O)c3ccccc3)nc(Nc3ccc(C(=O)NCc4ccc(F)cc4)cc3)n2)ccc1O [Compound 144] | 3.4 % of Ctl | 5.8 % of Ctl | 10.8 % of Ctl | –
18 | O=C(NCc1ccc(F)cc1)c1ccc(Nc2nc(Nc3ccc(O)cc3)nc(Nc3ccc(O)cc3)n2)cc1 [Compound 145] | 7.1 % of Ctl | 3.1 % of Ctl | 6.9 % of Ctl | –
19 | O=C(NCCOCCNc1nc(Nc2ccc(O)cc2)nc(Nc2ccc(C(=O)NCc3ccc(F)cc3)cc2)n1)c1ccccc1 [Compound 147] | 44.5 % of Ctl | 70.2 % of Ctl | 79.5 % of Ctl | –
20 | O=C(NCc1ccc(F)cc1)c1ccc(Nc2nc(Nc3ccc(O)cc3)nc(Nc3ccc(C(=O)NCc4ccc(F)cc4)cc3)n2)cc1 [Compound 148] | 8.4 % of Ctl | 12.9 % of Ctl | 20.7 % of Ctl | –
21 | O=C(NCc1ccc(F)cc1)c1ccc(Nc2nc(Nc3ccc(O)cc3)nc(Nc3ccc(CNCc4ccccc4)cc3)n2)cc1 [Compound 149] | 3.8 % of Ctl | 9.1 % of Ctl | 17.6 % of Ctl | –
22 | O=C(O)c1cccc(Nc2nc(NCCOCCOCCNC(=O)c3ccccc3)nc(Nc3ccc(C(=O)NCc4ccc(F)cc4)cc3)n2)c1 [Compound 150] | 4.2 % of Ctl | 14.3 % of Ctl | 23.9 % of Ctl | –
23 | O=C(NCCOCCOCCNc1nc(NCCOCCOCCNC(=O)c2ccccc2)nc(Nc2ccc(O)cc2)n1)c1ccccc1 [Compound 151] | – | 0.7 % of Ctl | 8.4 % of Ctl | –
